Data from PMC6259843 (Molecules, 2011).

Target: T1, pancreatic α-amylase (Sus scrofa, UniProt P00690)
T1 construct: gene AMY2
T1 sequence (P00690 16-511): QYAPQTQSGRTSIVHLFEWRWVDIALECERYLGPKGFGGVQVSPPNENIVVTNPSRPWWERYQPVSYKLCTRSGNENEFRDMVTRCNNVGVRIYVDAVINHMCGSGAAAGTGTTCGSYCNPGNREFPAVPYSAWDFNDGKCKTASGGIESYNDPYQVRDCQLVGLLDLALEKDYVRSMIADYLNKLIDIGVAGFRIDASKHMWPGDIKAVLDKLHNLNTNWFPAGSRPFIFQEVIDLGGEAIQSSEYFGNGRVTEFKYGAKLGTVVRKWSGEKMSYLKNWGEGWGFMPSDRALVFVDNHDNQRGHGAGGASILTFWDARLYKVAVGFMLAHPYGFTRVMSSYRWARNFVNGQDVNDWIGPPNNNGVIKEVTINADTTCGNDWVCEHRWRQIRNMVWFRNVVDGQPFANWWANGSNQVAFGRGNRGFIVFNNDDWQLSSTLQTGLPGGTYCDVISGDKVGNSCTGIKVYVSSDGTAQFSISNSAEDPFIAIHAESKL
Test: starch hydrolysis inhibition assay with DNS readout at […] nm; Lineweaver-Burk kinetics
Format: biochemical

IC50: 24.4 ± 0.1 µM
SMILES: C[C@@H]1O[C@@H](OC[C@H]2O[C@@H](Oc3cc4c(O)cc(O)cc4[o+]c3-c3ccc(O)c(O)c3)[C@H](O)[C@@H](O)[C@@H]2O)[C@H](O)[C@H](O)[C@H]1O [C3R, Cyanidin-3-rutinoside]
